Several values for one entry are separate records, joined by “and”; a condition that tells them apart may be missing. Equal entries are not always repeated. Marks after values point to notes of the source that are not given here.
Legend:
[1] = tested on: CD11b expression in monocytes; test: Pharmacodynamics: CD11b expression by flow cytometry; format: in vivo, human
Procedure: For pharmacodynamic assessments, venous blood samples were collected and CD11b expression in monocytes was assessed as a surrogate marker of target engagement using flow cytometry before and after the first administration of RO6870810. Samples were obtained on cycle 1, day 1 (pre-dose and 2, 4 and 8 h post dose) and on cycle 1, day 15 (pre-dose and 2- and 4-h post dose). […] Formal hypothesis testing was not performed for this Phase 1 study. The sample size was based on a standard 3 + 3 dose-escalation design and was considered sufficient to evaluate the safety and clinical activity of RO6870810. AEs were coded using the current Medical Dictionary for Regulatory Activities, and safety and clinical efficacy were summarised using descriptive statistics. The 95% CI for the objective response rate was calculated using Wilson’s score method with continuity correction, and PFS was analysed using the Kaplan–Meier method. For the PK analyses, key exposure parameters such as maximum plasma concentration (Cmax) and area under the curve were summarised with descriptive statistics, and dose-exposure relationships were plotted graphically. Percentage changes in CD11b from baseline by flow cytometry were summarised with descriptive statistics and plotted over time. The relationship between percentage change from baseline in CD11b (average of three measurements taken pre-dose, at 2 h and at 4 h) on day 15 and the RO6870810 dose was plotted. To investigate the relationship between individual percentage changes in CD11b from baseline and RO6870810 concentration on day 15, the nonparametric regression LOESS curve fitting (locally weighted scatterplot smoothing) method was applied.

[2] = tested on: diffuse large B-cell lymphoma (DLBCL); test: Clinical activity in DLBCL sub-study (Lugano classification); format: in vivo, human
From the text: Evaluation of the anticancer activity of RO6870810 was a secondary objective, as measured by time to first and best response, overall response rate, progression-free survival (PFS), duration of response and overall survival. […] Scans could also be obtained after one cycle following a study amendment. […] Responders were defined as patients who achieved a confirmed CR or partial response (PR). PFS was defined as the time from the date of first study drug administration to the first date of objectively determined progressive disease (PD) or death from any cause. PFS was censored at the date of the most recent objective progression-free observation for patients who were still alive at the time of analysis and without evidence of tumour progression. For patients who received subsequent anticancer therapy prior to objective disease progression or death, PFS was censored at the date of the last objective progression-free observation prior to the date of subsequent therapy.

[3] = tested on: BET family bromodomains (BRD4, BRD3, BRD2 and BRDT); parameters: method as in data on file; conditions: ref data on file; cited from earlier work
[4] = parameters: method as in NCT03068351; conditions: Phase 1 monotherapy in multiple myeloma, 0.3, 0.45 and 0.6 mg/kg, same schedule; ref NCT03068351; cited from earlier work
[5] = DLBCL, % of n = 13 with non-missing best response

Cc1sc2c(c1C)C(c1ccc(Cl)cc1)=N[C@@H](CC(=O)NCCCN1CCN(C)CC1)c1nnc(C)n1-2 [RO6870810]
Change in CD11b during the dosing period ([1]; across dose levels, with the exception of the 0.03-mg/kg dose): sustained decreases in CD11b | Largest decreases in CD11b ([1]; at ≥0.2 mg/kg, cycle 1, day 15): ≥ 50% | Doses at which mean decreases in CD11b occurred ([1]; cycle 1, day 15): > 0.06 mg/kg | RO6870810 concentration reaching a 50% reduction in CD11b ([1]; cycle 1, day 15, LOESS curve): > 150 ng/mL | Complete response ([2]; DLBCL (n = 19)): 0 n (%) | Median time to first response (min-max) ([2]; DLBCL (n = 19)): 45.0 (41–49) days | Missing response (no postbaseline tumour assessment) ([2]; DLBCL (n = 19)): 6 n (%) | Unknown response ([2]; DLBCL (n = 19)): 0 n (%) | Median PFS ([2]; DLBCL, 19 patients): 29 days | PFS range ([2]; DLBCL, 19 patients): 18 to 708 days | Objective response rate ([2]; DLBCL, n = 2 of 19, 95% CI, 2–35%): 11% and 10.5% | Partial response [2, 5]: 2 (15.4)^d n (%) | Progressive disease [2, 5]: 7 (53.8)^d n (%) | Stable disease [2, 5]: 4 (30.8)^d n (%) | PR as best response ([2]; DLBCL, n = 2 of 13 with non-missing data): 15% | PD as best response ([2]; DLBCL, n = 7 of 13 with non-missing data): 54% | Decrease in target tumour volume (PR) ([2]; person, GCB DLBCL, 0.45 mg/kg 21 of 28 days, after cycle 1): 55% | Reduction from baseline in target tumour volume ([2]; person, GCB DLBCL, end of cycle 2 (PD by objective criteria)): 64% | Affinity for the acetyl-lysine recognition pocket of BET family bromodomains [3]: high affinity | Grade 3–4 thrombocytopenia [4]: observed in a substantial proportion of patients
